{"source": "patent US7449560B2", "about": "“Phosophoinositoglycan binding proteins” (Sanofi-Aventis Deutschland GmbH, priority 2002, dated 2008)", "key": {"[1]": {"system": "PIG(-P) receptor at hcDIGs", "test": "Competition of unlabeled PIG(-P) with radiolabeled YCN-PIG binding to hcDIGs", "set-up": "species or system rat", "details": "for Binding affinity: hcDIGs of rat adipocytes; for efficacy in the competition assay (displacement of radiolabeled YCN-PIG from hcDIGs): unlabeled competitor", "protocol": "(§1) 10 μl, of radiolabeled YCN-PIG or IcGce1p (60,000-80,000 dpm/nmol, final conc. 5 μM) was added to 40 μl of suspended plasma membranes, microsomes or hc/IcDIGs (40-80 μg of protein) in binding buffer in the absence or presence of unlabeled competitor (as indicated in the figure legends) in a total volume of 100 μl and incubated (30 min, 4° C.). For separation of membranes from the incubation medium, 45 μl aliquots were carefully layered over 200 μl, oil layers consisting of dibutyl phthalate and dioctyl phthalate (1/1 by vol., final density 1.012) in case of plasma membranes/microsomes or dibutyl phthalate and dinonyl phthalate (1/9 by vol., final density […]) in case of hc/IcDIGs in 0.4 ml precooled (4° C.) centrifugation tubes (microtubes no. 72.700, Sarstedt, Germany). […] After rigorous shaking (16 h, 25° C.), the radioactivity was counted in 9 ml of ACSII scintillation cocktail (Beckman). Under these conditions, sticking to the tube walls and partitioning into the oil layer of both radiolabeled YCN-PIG and IcGce1p accounted for 50-120 dpm (i.e. less than 0.5% of total radioactivity used per incubation) and therefore was not considered for calculation of binding data. Typical recoveries of plasma membranes and microsomes were 78-85% and 65-80%, respectively, and of hcDIGs and IcDIGs 83-92% and 70-78%, respectively, according to protein determination.\nRadiolabeled YCN−PIG (18,000-22,000 dpm) was incubated (1 h, 4° C.) with hcDIGs (6.5 μg protein) in the absence or presence of increasing amounts of unlabeled YCN-PIG, YCN+PIG37, YMN-PIG, PIG37 and YCN (Competition). The membrane fractions/DIGs were subjected to oil-layer-centrifugation, recovered with/from the pellet/top of the oil layer, solubilized and counted for radioactivity."}, "[2]": {"system": "IcDIGs", "test": "Binding of radiolabeled YCN-PIG to IcDIGs", "set-up": "species or system rat", "details": "control adipocytes (no m-βCD)", "protocol": "(§2) 10 μl, of radiolabeled YCN-PIG or IcGce1p (60,000-80,000 dpm/nmol, final conc. 5 μM) was added to 40 μl of suspended plasma membranes, microsomes or hc/IcDIGs (40-80 μg of protein) in binding buffer in the absence or presence of unlabeled competitor (as indicated in the figure legends) in a total volume of 100 μl and incubated (30 min, 4° C.). […] After rigorous shaking (16 h, 25° C.), the radioactivity was counted in 9 ml of ACSII scintillation cocktail (Beckman). Under these conditions, sticking to the tube walls and partitioning into the oil layer of both radiolabeled YCN-PIG and IcGce1p accounted for 50-120 dpm (i.e. less than 0.5% of total radioactivity used per incubation) and therefore was not considered for calculation of binding data. […]\nRadiolabeled YCN-PIG (12,000-18,000 dpm) was incubated (1 h, 4° C.) with the (proportional) amounts of hcDIGs and IcDIGs prepared from isolated rat adipocytes which had been pretreated (50 min, 30° C.) with increasing concentrations of m-βCD or left untreated. DIGs were subjected to oil-layer-centrifugation, recovered from top of the oil layer, solubilized and counted for radioactivity measured in the absence and presence of 10 μM unlabeled YCN-PIG. […]"}, "[3]": {"system": "PIG(-P) receptor at hcDIGs", "test": "Binding of radiolabeled YCN-PIG to hcDIGs (oil-layer centrifugation, Scatchard plot)", "set-up": "species or system rat", "protocol": "as §1, with “determination. […]” for “determination.”\nIncreasing amounts of radiolabeled YCN−PIG isolated from S. cerevisiae were incubated (1 h, 4° C.) with hcDIGs (6.5 μg protein), IcDIGs (6.5 μg), plasma membranes (47.5 μg) and microsomes (68 μg) from isolated rat adipocytes. The membrane fractions/DIGs were subjected to oil-layer-centrifugation, recovered with/from the pellet/top of the oil layer, solubilized and counted for radioactivity. Specific binding was calculated as the difference between radioactivity measured in the absence and presence of 10 μM unlabeled YCN−PIG. […]"}, "[4]": {"system": "CIR (115 kDa polypeptide)", "test": "[14C]NEM-labeling and trypsin/NaCl release of CIR from rat adipocytes", "format": "cell-based", "details": "adipocytes treated before labeling", "protocol": "For trypsin/NaCl-treatment, 2 ml of adipocyte suspension (3.5×10^6 cells/ml) in KRH containing 5 mM glucose was incubated (20 min, 30° C.) in the presence of 100 μg/ml trypsin. Soy bean trypsin inhibitor (final conc. 100 μg/ml) and 2 ml of KRH containing 1 M NaCl and 0.5% BSA were added and the incubation (10 min, 22° C.) continued. For NEM-treatment, 1 ml of adipocyte suspension (3.5×10^6 cells/ml) in KRH containing 5 mM glucose was incubated (30 min, 25° C.) with NEM (1.5 mM final conc.) and then with DTT (15 mM final conc., 5 min). After the treatments, the cells were centrifuged (1500×g, 5 min, swing-out rotor) and the infranatant removed by suction. The cell suspension left (about 0.5 ml) was supplemented with 10 ml of KRH containing 0.5% BSA and then centrifuged again (500×g, 1 min, swing-out rotor). […] Proteins of the medium contained in the lower part of the tubes were precipitated (10% TCA, two acetone washes), suspended in Laemmli sample buffer and analyzed by SDS-PAGE. […]\nPhosphorimages are shown from a typical experiment repeated three times with similar results. Quantitative evaluation of four different adipocyte incubations with triplicate measurements given as arbitrary units (mean±SD) with the amount of CIR released from trypsin/NaCl-treated control cells set at 100."}, "[5]": {"system": "IcGce1p binding site at hcDIGs", "test": "Competition of synthetic PIG(-P) with radiolabeled IcGce1p binding to hcDIGs", "set-up": "species or system rat", "protocol": "as §2\nRadiolabeled Gce1p prepared from S. cerevisiae and treated with PI-specific PLC (B. cereus) was incubated (1 h, 4° C.) with hcDIGs (6.5 μg protein) isolated from untreated rat adipocytes in the absence or presence of unlabeled PIG-P. hcDIGs were subjected to oil-layer-centrifugation, solubilized and counted for radioactivity. […]"}}}
{"substance": "Tyr-Cys-Asn-NH—(CH2)2—O—PO(OH)O-6Manα1-2)2Manα1-6Manα1-4GluN1-6Ino-1,2-(cyclic)-phosphate [YCN-PIG, phosphoinositolglycan-peptide derived from yeast Gce1p GPI anchor; also chemically synthesized]", "values": [{"measurement": "Binding affinity", "setting": "[1]", "value": "highest"}, {"measurement": "YCN-PIG left associated with IcDIGs", "setting": "[2]", "value": 20, "unit": "%"}, {"measurement": "Bmax", "setting": "[3]; Scatchard plot analysis, radiolabeled YCN-PIG", "value": "50-200 pmol per mg protein of hcDIGs"}, {"measurement": "Bmax higher vs untreated", "setting": "[3]; hcDIGs from PI-specific PLC-pretreated adipocytes, Scatchard", "value": "2 to 3", "unit": "fold"}, {"measurement": "increase in binding of YCN-PIG to hcDIGs", "setting": "[3]; hcDIGs from adipocytes pretreated with GPI-specific PL (PI-specific PLC / GPI-specific PLD)", "value": 200, "unit": "%"}]}
{"substance": "insulin: human insulin", "values": [{"measurement": "stimulation of trypsin/NaCl-dependent release of [14C]NEM-labeled CIR", "setting": "[4]", "value": 20, "unit": "%"}]}
{"substance": "Tyr-Cys-Asn-NH—(CH2)2—OH [YCN]", "values": [{"measurement": "Binding affinity", "setting": "[1]", "value": "low"}, {"measurement": "efficacy in the competition assay (displacement of radiolabeled YCN-PIG from hcDIGs)", "setting": "[1]", "value": "very low activity"}, {"measurement": "Competition of IcGce1p binding", "setting": "[5]", "value": "considerably less efficient"}]}
{"substance": "HO—PO(H)O-6Manα1 (Manα1-2)-2-Manα1-6Manα1-4GluN1-6Ino-1,2-(cyclic)-phosphate [PIG37]", "values": [{"measurement": "Binding affinity", "setting": "[1]", "value": "intermediate"}, {"measurement": "efficacy in the competition assay (displacement of radiolabeled YCN-PIG from hcDIGs)", "setting": "[1]", "value": "significantly reduced efficacy"}, {"measurement": "Competition of IcGce1p binding", "setting": "[5]", "value": "considerably less efficient"}]}
